# From US8883718B2, “Treating cancer” (Theryte Limited, priority 2008, dated 2014)
# “Also recorded” adds a separate entry of the source. Where a SMILES comes first, the peptide text is derived from it.
# Tests used:
# [1] = system: Eleven human cancer cell lines covering a wide range of histologies; test: eleven human cancer cell lines exposed to THR53 (morphology and clonogenic assays); type: cell-based; settings: 200 μM
# Protocol: (§1) In a clinical context this might provide a biomarker of therapeutic efficacy. […] Such a homogeneous therapeutic response is in marked contrast to the wide range of variability in dose response of different cancer cell lines seen with conventional chemotherapeutic agents^24. Cancer cells both underwent successful mitosis and died (FIG. 3f) or died in interphase (FIG. 7d). […] MRC-hTERT fibroblasts (FIG. 7c) and short term cultures of normal diploid human keratinocytes (FIG. 3h) were not killed by 200 μM THR53.
# [2] = system: H460 human non-small cell lung cancer cells; test: clonogenic assay on H460 cells; type: cell-based
# Protocol: (§2) The first experiments were carried out on cyc-[[…]] (THR 53, (SEQ ID NO: 9)), see FIG. 4. Whilst the 96 well assays described in Example 3 are suitable for initial screening of small amounts of peptide material the long incubation periods in dense culture do themselves compromise cell viability to some extent. […] In clonogenic assays, (previously described by Warenius et al Br J Cancer (2000) 83(8), 1048-1059) single cell suspensions of 100 cells are plated in plentiful volumes of 2 ml of Ham's F12 tissue culture medium supplemented with 10% FCS and incubated for 15, 20 or 25 days. A high percentage of the plated cells (40-60% in the case of H460) go through repeated doublings to yield colonies of 200 or more cells which can be easily visualized by the naked eye and counted under a low power lens when stained by giemsa stain.
# The efficacy of THR53 was compared to Ac-PRGPRP-NH2 (SEQ ID NO: 2) using a clonogenic assay.
# [3] = system: normal diploid human keratinocytes; test: normal keratinocyte cultures exposed to THR53; type: cell-based; settings: 200 μM
# Protocol: FIGS. 7(g), (h), (i,) and (j) show established cultures of H460 human non-small cell lung cancer cells (i, j) and normal diploid human keratinocytes (g, h) in the presence and absence of THR53. 10^4 tumor or keratinocyte cells were plated in 2.5 cm diameter tissue culture wells and 5 days later vehicle (g, i) or 200 μM THR53 (SEQ ID NO: 9) (h, j) were added. Further incubation was carried out for 7 days.
# as §1
# [4] = system: MRC-hTERT immortalized normal human fibroblasts; test: MRC-hTERT fibroblasts exposed to THR53; type: cell-based; settings: 200 μM
# Protocol: FIGS. 7(c), (d) and (e) show time lapse photomicrographs of H460 human non-small cell lung cancer cells and MRC-hTERT immortalized normal human fibroblasts growing in tissue culture following exposure to 200 μM THR53 (SEQ ID NO: 9) (d, e) and untreated control H460 cells (c). Magnification ×10.
# as §1
# [5] = system: H460 human non-small cell lung cancer cells; test: MTS cell viability assay, H460 cells; type: cell-based; settings: H460, 12.5 to 100 μM, 2-4 weeks
# Protocol: (§3) The effect of these peptides was tested on both human fibroblasts and H460 human non-small cell […] cancer cells at doses in the range 12.5 to 100 μM. The peptides were tested in vitro by exposure to 100 H460 human non-small cell lung cancer cells, or short term cultures of normal human diploid fibroblasts, in 200 ul of Ham's F12 tissue culture medium supplemented with 10% FCS. Cells were set up in 100 ul on day 0 and 24 hours later a further 100 ul of the same medium containing ×2 the appropriate concentration of peptide over a range of 12.5-100 uM was added. The cells were then incubated at 37° C., 5% CO2 in an humidified incubator for 2-4 weeks.
# (§4) Cell viability was measured by an MTS assay (CellTiter 96^R Non-Radioactive Cell Proliferation Assay. Promega Corporation, 2800 Woods Hollow Road, Madison Wis. 53711-5399 USA). The original form of this assay was described by Mosmann (J. Immunol. Meth. 65; 55-63. 1983) and gives a colorometric reading whose intensity depends on the conversion, by viable cells, of a tetrazolium salt into a coloured formazan which is easily quantified by colorimetric reading of a 96 well assay plate.
# [6] = system: normal human diploid fibroblasts; test: MTS cell viability assay, fibroblasts; type: cell-based; settings: 12.5 to 100 μM, 2-4 weeks
# Protocol: as §3, §4
# [7] = system: Cdk1 compared to Cdk4 in RT112 cells; test: sequential Western blots of RT112 cells after peptide exposure; type: cell-based, human; settings: over 15 days
# Excerpt: Peptides were introduced at day 0 and left in-situ throughout the experiment.
# as §1
# [8] = system: RT112 human bladder cancer cells; test: clonogenic assay on RT112 cells; type: cell-based
# Protocol: (§5) Normal diploid human fibroblasts in short term culture were unaffected (FIG. 2b). […] However, PRGPRP (SEQ ID NO: 2) is only effective at killing RT112 bladder cancer cells at a concentration of 5.0 mM. Because of concern that such high peptide doses might cause artefactual, non-specific effects, structure/function studies were carried out.
# as §2
# [9] = system: MGHU-1 Human transitional bladder cancer cells; test: in-vitro culture of MGHU-1 bladder cancer cells, cell death observed morphologically; type: cell-based
# Protocol: as §5
# 5 mM was required to produce 100% lethality in in vitro experiments on RT 112 (FIG. 2a) or MGHU-1 human bladder cancer cells. This limits the applicability of PRGPRP (SEQ ID NO: 2) to therapy even though it has selected killing activity in human cancer cells but not normal human fibroblasts.
# [10] = system: Normal diploid human fibroblasts; test: normal diploid human fibroblasts in short term culture; type: cell-based
# Protocol: as §5
# human cancer cells = test: clonogenic assays of human cancer cells exposed to PRGPRP motif in cyclic amphiphilic cassettes; type: cell-based; settings: FIG. 6i
# Protocol: FIGS. 6(h) and (i) show clonogenic assays of human cancer cells exposed to the PRGPRP (SEQ ID NO: 2) motif in cyclic amphiphlic cassettes. THR53 (SEQ ID NO: 9, cyc-[[…]]); THR53C (SEQ ID NO: 23, cyc-[[…]], a control peptide); THR54 (SEQ ID NO: 10, cyc-[[…]]); THR79 (SEQ ID NO: 11, cyc-[PRGPRPvalklalklal]).
# as §2
# The effectiveness of cyclic peptides comprising amphiphilic sequences is further illustrated in FIGS. 6h and 6i, showing the results of a clonogenic assay using the peptides THR53 cyc-[[…]] (SEQ ID NO: 9); THR53C, cyc-[[…]] […]
# [11] = system: MGHU-1 Human transitional bladder cancer cells; settings: cited from earlier work
compound,measurement,setting,value
CC(C)C[C@@H]1NC(=O)[C@H](C)NC(=O)[C@H](CC(C)C)NC(=O)[C@H](CCCCN)NC(=O)[C@H](C(C)C)NC(=O)[C@@H]2CCCN2C(=O)[C@H](CCCNC(=N)N)NC(=O)[C@@H]2CCCN2C(=O)CNC(=O)[C@H](CCCNC(=N)N)NC(=O)[C@@H]2CCCN2C(=O)[C@@H]2CCCN2C(=O)[C@H](Cc2ccccc2)NC(=O)[C@H](CCCCN)NC(=O)[C@H](CC(C)C)NC(=O)[C@H](C)NC(=O)[C@H](CC(C)C)NC(=O)[C@H](CCCCN)NC1=O [THR53] (cyclo(ALKFPPRGPRPVKLALKL)),mode of cancer cell death,[1],no features of apoptosis
same,response / lethality in clonogenic assays,"[1]; 15 days after exposure, eleven human cancer cell lines",complete lethality; also recorded: complete response
same,lethality on H460 non-small cell lung cancer cells,"[2]; 100 uM, no colonies visible",100%
same,H460 cell survival in clonogenic assay,[2]; drug concentrations 10 to 100 μM,significantly decreased
same,killing of normal diploid human keratinocytes in short term culture,[3],not killed
same,killing of MRC-hTERT fibroblasts,[4],not killed
"Ac-PRGPRPVKLALKLALKAL-NH2 [THR51, linear peptide outside the scope of the invention]","cancer cell killing (cell viability, MTS)",[5],improvement in cancer cell killing over PRGPRP
same,"killing of fibroblasts (cell viability, MTS)",[6],equally as well killed
Ac-Pro-Arg-Arg-Pro-Gly-Pro-NH2 (Ac-PRRPGP-NH2),change in Cdk1 compared to Cdk4,[7],not seen
same,cancer cell lethality / activity in clonogenic assay,[8]; RT112,inactive
Ac-Pro-Arg-Gly-Pro-Arg-Pro-NH2 (Ac-PRGPRP-NH2) [end-capped hexameric peptide according to WO2005/123760],change in Cdk1 compared to Cdk4,[7],Progressive increase
same,effect on H460 cell survival in clonogenic assay,[2]; 1 to 10 mM concentration,limited effect
same,"effect on H460 non-small cell lung cancer, clonogenic assay",[2]; H460,no effect
same,cancer cell lethality / activity in clonogenic assay,[8]; RT112,Cancer cell lethality was confirmed
same,concentration effective at killing RT112 bladder cancer cells,[8]; RT112,5.0 mM
same,concentration required to produce 100% lethality,"[8]; RT 112, in vitro",5 mM
same,cell death observed morphologically in-vitro,"[9]; 5.0 mM, 25 days after exposure",Complete cell death
same,concentration required to produce 100% lethality,"[9]; MGHU-1, in vitro",5 mM
same,effect on normal diploid human fibroblasts in short term culture,[10]; 5.0 mM,unaffected
"cyc-[FPPRRPGPVKLALKLALK] (cyclic; Control peptide; /note=“cyclic peptide”) [THR53C, a control peptide]",arginine-related structure function relationship in cyclic amphiphilic compounds (control peptide),human cancer cells,structure function relationship was retained
cyc-[PRGPRPVPRGPRPVPRGPRPV] (cyclic; Cyclic peptide; /note=“cyclic peptide”) [cyclic peptide disclosed in WO2005/123760],killing of MGHU1 cells,[9],did not kill
same,effect on normal fibroblasts,[10],markedly stimulate
same,effect on MGHU1 cells as disclosed in WO2005/123760,[11],caused morphological changes
